Measurements: paper doi:10.1101/2024.08.19.608619, “Discovery of potent SARS-CoV-2 nsp3 macrodomain inhibitors uncovers lack of translation to cellular antiviral response” (bioRxiv, 2024)

Assays:
[1] = Hepatic microsomal stability, HLM; assay type: in vitro ADME, human; details: In vitro human liver microsomal stability; for perc_remaining_no_cofactor: no cofactor
[2] = In vitro dog hepatocyte stability; assay type: in vitro ADME
Text: Supplement media-1.zip/Hepatocyte_Stability.csv, table | column: clint; t_half

[3] = Protein binding; assay type: in vitro ADME
Text: Supplement media-1.zip/Protein_Binding.csv, table | column: fu; perc_bound; perc_free; perc_recovered

[4] = target: T1, alpha1A (h) (Homo sapiens, UniProt P35348); experiment: In vitro CEREP profiling, alpha1A (h) (antagonist radioligand); assay type: binding; details: test compound 10 uM
T1 construct: purchased Eurofins Cerep (SafetyScreen44), recognised from the panel format
T1 sequence (P35348 1-466): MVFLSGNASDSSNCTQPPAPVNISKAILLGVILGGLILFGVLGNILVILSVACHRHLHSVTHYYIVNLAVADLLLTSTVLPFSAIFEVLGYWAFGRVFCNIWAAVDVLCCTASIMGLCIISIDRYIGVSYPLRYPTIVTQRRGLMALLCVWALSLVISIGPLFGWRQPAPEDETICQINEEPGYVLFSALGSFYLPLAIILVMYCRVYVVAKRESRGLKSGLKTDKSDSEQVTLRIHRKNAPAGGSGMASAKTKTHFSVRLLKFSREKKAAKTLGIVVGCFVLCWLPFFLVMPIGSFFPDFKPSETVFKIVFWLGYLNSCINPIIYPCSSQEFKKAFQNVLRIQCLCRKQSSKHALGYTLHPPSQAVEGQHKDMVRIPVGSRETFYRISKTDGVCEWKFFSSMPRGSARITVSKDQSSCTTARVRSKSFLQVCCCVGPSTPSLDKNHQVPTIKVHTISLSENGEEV
Text: (§1) Supplement media-1.zip/Safety_Panel_Profile.csv, table | column: perc_inhibition

[5] = target: T2, alpha2A (h) (Homo sapiens, UniProt P08913); experiment: In vitro CEREP profiling, alpha2A (h) (antagonist radioligand); assay type: binding; details: test compound 10 uM
T2 construct: purchased Eurofins Cerep (SafetyScreen44), recognised from the panel format
T2 sequence (P08913 1-465): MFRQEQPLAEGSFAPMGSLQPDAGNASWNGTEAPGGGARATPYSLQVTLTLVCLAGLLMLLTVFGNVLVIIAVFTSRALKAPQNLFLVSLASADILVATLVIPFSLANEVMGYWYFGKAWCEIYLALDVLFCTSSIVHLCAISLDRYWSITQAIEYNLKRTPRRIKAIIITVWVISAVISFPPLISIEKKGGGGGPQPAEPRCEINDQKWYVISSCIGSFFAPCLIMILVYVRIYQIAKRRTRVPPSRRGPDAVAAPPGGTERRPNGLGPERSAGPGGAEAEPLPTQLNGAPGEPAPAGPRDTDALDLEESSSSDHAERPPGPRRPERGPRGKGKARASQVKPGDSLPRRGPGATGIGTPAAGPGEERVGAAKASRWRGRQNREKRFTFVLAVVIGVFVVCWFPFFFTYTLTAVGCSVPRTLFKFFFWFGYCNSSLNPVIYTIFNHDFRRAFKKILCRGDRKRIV
Text: as §1

[6] = target: T3, M1 (h) (Homo sapiens, UniProt P11229); experiment: In vitro CEREP profiling, M1 (h) (antagonist radioligand); assay type: binding; details: test compound concentration 10 uM
T3 construct: purchased Eurofins Cerep (SafetyScreen44), recognised from the panel format
T3 sequence (P11229 1-460): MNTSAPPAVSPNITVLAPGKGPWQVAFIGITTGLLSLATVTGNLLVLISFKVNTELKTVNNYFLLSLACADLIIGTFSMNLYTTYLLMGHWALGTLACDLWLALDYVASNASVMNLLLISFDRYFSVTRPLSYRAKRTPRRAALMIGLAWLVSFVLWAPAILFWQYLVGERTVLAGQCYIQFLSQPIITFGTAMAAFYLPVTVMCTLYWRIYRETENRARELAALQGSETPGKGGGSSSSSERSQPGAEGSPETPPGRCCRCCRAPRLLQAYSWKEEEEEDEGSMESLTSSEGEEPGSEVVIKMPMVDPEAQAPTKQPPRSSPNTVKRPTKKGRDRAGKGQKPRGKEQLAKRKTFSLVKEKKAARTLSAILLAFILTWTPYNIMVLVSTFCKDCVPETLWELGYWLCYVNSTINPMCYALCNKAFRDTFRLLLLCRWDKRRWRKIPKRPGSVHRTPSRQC
Text: as §1

[7] = target: T4, N neuronal alpha4beta2 (h) (Homo sapiens, UniProt P17787+P43681); experiment: In vitro CEREP profiling, N neuronal alpha4beta2 (h) (agonist radioligand); assay type: binding; details: test compound concentration 10 uM
T4 construct: purchased Eurofins Cerep (SafetyScreen44), recognised from the panel format
T4 sequence (P43681 29-627 limits assumed): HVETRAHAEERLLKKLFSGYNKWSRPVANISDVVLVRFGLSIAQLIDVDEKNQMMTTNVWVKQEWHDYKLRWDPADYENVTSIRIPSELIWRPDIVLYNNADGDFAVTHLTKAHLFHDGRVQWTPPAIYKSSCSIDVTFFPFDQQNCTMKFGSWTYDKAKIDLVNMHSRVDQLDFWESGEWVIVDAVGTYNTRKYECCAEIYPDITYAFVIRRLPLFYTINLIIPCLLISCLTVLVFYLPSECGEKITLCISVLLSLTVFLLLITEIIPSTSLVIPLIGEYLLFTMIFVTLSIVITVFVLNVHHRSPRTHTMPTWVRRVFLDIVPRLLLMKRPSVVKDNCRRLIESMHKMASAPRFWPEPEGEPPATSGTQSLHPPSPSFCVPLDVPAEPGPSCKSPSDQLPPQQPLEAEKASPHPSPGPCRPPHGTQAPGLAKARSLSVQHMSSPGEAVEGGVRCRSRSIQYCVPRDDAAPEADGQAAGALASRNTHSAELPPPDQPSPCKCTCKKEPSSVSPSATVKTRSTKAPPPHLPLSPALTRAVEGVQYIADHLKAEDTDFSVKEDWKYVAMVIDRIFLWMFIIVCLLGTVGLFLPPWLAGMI
T4 sequence (P17787 26-502): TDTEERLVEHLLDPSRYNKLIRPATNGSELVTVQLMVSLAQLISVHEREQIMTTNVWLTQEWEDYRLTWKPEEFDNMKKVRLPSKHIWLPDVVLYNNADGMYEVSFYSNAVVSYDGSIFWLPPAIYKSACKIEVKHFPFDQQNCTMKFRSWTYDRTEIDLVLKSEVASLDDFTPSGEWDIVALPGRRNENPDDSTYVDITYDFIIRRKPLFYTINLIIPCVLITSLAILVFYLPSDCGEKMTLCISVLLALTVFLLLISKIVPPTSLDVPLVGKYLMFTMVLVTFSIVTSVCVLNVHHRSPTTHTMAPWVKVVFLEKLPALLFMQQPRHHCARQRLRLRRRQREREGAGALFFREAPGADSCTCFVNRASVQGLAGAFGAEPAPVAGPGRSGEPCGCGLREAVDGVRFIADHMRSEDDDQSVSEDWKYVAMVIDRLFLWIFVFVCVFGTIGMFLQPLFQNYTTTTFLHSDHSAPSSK
Text: as §1

[8] = tested on: Ca2+ channel (L, dihydropyridine site); experiment: In vitro CEREP profiling, Ca2+ channel (L, dihydropyridine site) (antagonist radioligand); assay type: binding; details: test compound concentration 10 uM
Text: as §1

[9] = target: T5, D1 (h) (Homo sapiens, UniProt P21728); experiment: In vitro CEREP profiling, D1 (h) (antagonist radioligand); assay type: binding; details: test compound 10 uM
T5 construct: purchased Eurofins Cerep (SafetyScreen44), recognised from the panel format
T5 sequence (P21728 whole entry): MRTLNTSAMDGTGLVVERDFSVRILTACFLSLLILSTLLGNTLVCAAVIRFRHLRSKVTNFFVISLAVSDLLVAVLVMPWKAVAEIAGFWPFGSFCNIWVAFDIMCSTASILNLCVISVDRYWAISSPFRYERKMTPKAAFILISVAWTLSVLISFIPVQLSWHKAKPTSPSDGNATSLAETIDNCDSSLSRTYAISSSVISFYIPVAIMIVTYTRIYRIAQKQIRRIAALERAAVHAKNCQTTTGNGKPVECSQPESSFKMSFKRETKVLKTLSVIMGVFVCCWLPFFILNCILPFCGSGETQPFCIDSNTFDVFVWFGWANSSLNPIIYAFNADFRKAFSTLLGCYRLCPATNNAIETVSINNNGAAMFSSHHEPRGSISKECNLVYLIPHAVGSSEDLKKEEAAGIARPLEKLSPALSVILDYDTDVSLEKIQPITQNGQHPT
Text: as §1

[10] = target: T6, 5-HT1A (h) (Homo sapiens, UniProt P08908); experiment: In vitro CEREP profiling, 5-HT1A (h) (agonist radioligand); assay type: binding; details: test compound concentration 10 uM
T6 construct: purchased Eurofins Cerep (SafetyScreen44), recognised from the panel format
T6 sequence (P08908 1-422): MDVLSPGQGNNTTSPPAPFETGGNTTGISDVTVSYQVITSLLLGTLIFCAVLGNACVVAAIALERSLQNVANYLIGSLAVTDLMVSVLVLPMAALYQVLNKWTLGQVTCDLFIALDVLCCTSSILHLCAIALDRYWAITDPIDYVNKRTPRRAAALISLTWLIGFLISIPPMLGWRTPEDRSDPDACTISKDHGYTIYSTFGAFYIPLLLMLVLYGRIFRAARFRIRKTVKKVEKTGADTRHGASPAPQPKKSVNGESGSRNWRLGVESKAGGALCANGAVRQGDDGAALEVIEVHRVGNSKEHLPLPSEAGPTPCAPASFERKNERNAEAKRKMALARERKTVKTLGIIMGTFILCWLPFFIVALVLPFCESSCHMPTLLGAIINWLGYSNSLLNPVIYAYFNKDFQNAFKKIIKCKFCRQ
Text: as §1

[11] = tested on: Na+ channel (site 2); experiment: In vitro CEREP profiling, Na+ channel (site 2) (antagonist radioligand); assay type: binding; details: test compound concentration 10 uM
Text: as §1

[12] = tested on: NMDA; experiment: In vitro CEREP profiling, NMDA (antagonist radioligand); assay type: binding; details: test compound concentration 10 uM
Text: as §1

[13] = In vitro dog plasma protein binding
[14] = In vitro fetal calf serum protein binding
[15] = In vitro human plasma protein binding
[16] = In vitro mouse plasma protein binding
[17] = In vitro rat plasma protein binding

| Compound | clint [1] | perc_remaining [1] | t_half [1] | perc_remaining_no_cofactor [1] | clint [2] | t_half [2] | fu [3, 13] | perc_bound [3, 13] | perc_free [3, 13] | perc_recovered [3, 13] | fu [3, 14] | perc_bound [3, 14] | perc_free [3, 14] | perc_recovered [3, 14] | fu [3, 15] | perc_bound [3, 15] | perc_free [3, 15] | perc_recovered [3, 15] | fu [3, 16] | perc_bound [3, 16] | further results |
| --- | --- | --- | --- | --- | --- | --- | --- | --- | --- | --- | --- | --- | --- | --- | --- | --- | --- | --- | --- | --- | --- |
| CC(C)[C@H](Nc1ncnc2[nH]ccc12)c1ccc2c(c1)S(=O)(=O)CCC2 [ASAP-0008674] | 57.0 µL/min/mg | 37.0% | 29.5 min | 92.0% | < 3.0 uL/min/1E6 cells | > 231.0 min | 0.148 | 85.2% | 14.8% | 97.58% | 0.095 | 90.5% | 9.5% | 94.23% | 0.144 | 85.6% | 14.4% | 95.79% | 0.124 | 87.6% | perc_free [3, 16]: 12.4%; perc_recovered [3, 16]: 89.46%; fu [3, 17]: 0.189; perc_bound [3, 17]: 81.1%; perc_free [3, 17]: 18.9%; perc_recovered [3, 17]: 91.14%; perc_inhibition (% inhibition of the binding of a ligand specific for each target) [4]: -2%; perc_inhibition (% inhibition of the binding of a ligand specific for each target) [5]: 10%; perc_inhibition (% inhibition of the binding of a ligand specific for each target) [6]: 19%; perc_inhibition (% inhibition of the binding of a ligand specific for each target) [7]: 1%; perc_inhibition (% inhibition of the binding of a ligand specific for each target) [8]: 12%; perc_inhibition (% inhibition of the binding of a ligand specific for each target) [9]: -4%; perc_inhibition (% inhibition of the binding of a ligand specific for each target) [10]: 12%; perc_inhibition (% inhibition of the binding of a ligand specific for each target) [11]: -5%; perc_inhibition (% inhibition of the binding of a ligand specific for each target) [12]: -1% |
| CC(C)[C@H](Nc1ncnc2[nH]c(-c3cnn(C)c3C#N)cc12)c1ccc2c(n1)OCCO2 [ASAP-0010715] | 17.0 µL/min/mg | 78.0% | 100.0 min | 116.0% | 3.01 uL/min/1E6 cells | 231.0 min | 0.042 | 95.8% | 4.24% | 87.48% | 0.072 | 92.8% | 7.24% | 89.85% | 0.005 | 99.5% | 0.541% | 113.8% | 0.026 | 97.4% | perc_free [3, 16]: 2.56%; perc_recovered [3, 16]: 93.63%; fu [3, 17]: 0.02; perc_bound [3, 17]: 98.0%; perc_free [3, 17]: 2.04%; perc_recovered [3, 17]: 97.27%; perc_inhibition (% inhibition of the binding of a ligand specific for each target) [4]: 34%; perc_inhibition (% inhibition of the binding of a ligand specific for each target) [5]: 7%; perc_inhibition (% inhibition of the binding of a ligand specific for each target) [6]: 7%; perc_inhibition (% inhibition of the binding of a ligand specific for each target) [7]: 2%; perc_inhibition (% inhibition of the binding of a ligand specific for each target) [8]: 9%; perc_inhibition (% inhibition of the binding of a ligand specific for each target) [9]: 27%; perc_inhibition (% inhibition of the binding of a ligand specific for each target) [10]: 43%; perc_inhibition (% inhibition of the binding of a ligand specific for each target) [11]: 10%; perc_inhibition (% inhibition of the binding of a ligand specific for each target) [12]: 2% |
| Cn1ncc(-c2cc3c(N[C@@H](c4ccc5c(n4)OCCO5)C(C)(C)C)ncnc3[nH]2)c1C#N [ASAP-0011221] | 283.0 µL/min/mg | 1.0% | 5.9 min | 85.0% | 3.81 uL/min/1E6 cells | 182.0 min | 0.012 | 98.8% | 1.2% | 99.93% | 0.021 | 97.9% | 2.13% | 99.13% | 0.006 | 99.4% | 0.571% | 99.19% | 0.011 | 98.9% | perc_free [3, 16]: 1.06%; perc_recovered [3, 16]: 98.18%; fu [3, 17]: 0.018; perc_bound [3, 17]: 98.2%; perc_free [3, 17]: 1.83%; perc_recovered [3, 17]: 90.47%; perc_inhibition (% inhibition of the binding of a ligand specific for each target) [4]: 54%; perc_inhibition (% inhibition of the binding of a ligand specific for each target) [5]: 11%; perc_inhibition (% inhibition of the binding of a ligand specific for each target) [6]: 13%; perc_inhibition (% inhibition of the binding of a ligand specific for each target) [7]: -5%; perc_inhibition (% inhibition of the binding of a ligand specific for each target) [8]: 21%; perc_inhibition (% inhibition of the binding of a ligand specific for each target) [9]: 9%; perc_inhibition (% inhibition of the binding of a ligand specific for each target) [10]: 15%; perc_inhibition (% inhibition of the binding of a ligand specific for each target) [11]: 34%; perc_inhibition (% inhibition of the binding of a ligand specific for each target) [12]: 11% |
